According to PubChem BioAssay (NCI):
Several values for one entry are separate records, joined by “and”; a condition that tells them apart may be missing. Identical values can stand only once.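 How tested: cells in 96-well plates exposed to compound for 48 hours at five concentrations. Abbreviation: GI50, concentration required for 50% inhibition of growth. The concentration for full growth arrest is given as TGI.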

Assays:
Experiment in all cases: NCI-60 cell line screen, 48 h
A549 NSCLC = tested on: A549 NSCLC
HCC-2998 colon = tested on: HCC-2998 colon
HCT-15 colon = tested on: HCT-15 colon
K-562 leukemia = tested on: K-562 leukemia
LOX IMVI melanoma = tested on: LOX IMVI melanoma
MDA-MB-435 = tested on: MDA-MB-435
NCI-H23 lung = tested on: NCI-H23 lung
RPMI-8226 leukemia = tested on: RPMI-8226 leukemia
SNB-75 CNS = tested on: SNB-75 CNS
SR leukemia = tested on: SR leukemia

SMILES | GI50 (A549 NSCLC) [µM] | TGI (A549 NSCLC) [µM] | GI50 (HCC-2998 colon) [µM] | TGI (HCC-2998 colon) | GI50 (HCT-15 colon) [µM] | TGI (HCT-15 colon) [µM] | GI50 (K-562 leukemia) [µM] | TGI (K-562 leukemia) [µM] | GI50 (LOX IMVI melanoma) [µM] | TGI (LOX IMVI melanoma) | GI50 (MDA-MB-435) [µM] | TGI (MDA-MB-435) [µM] | GI50 (NCI-H23 lung) [µM] | TGI (NCI-H23 lung) | GI50 (RPMI-8226 leukemia) [µM] | TGI (RPMI-8226 leukemia) [µM] | GI50 (SNB-75 CNS) [µM] | TGI (SNB-75 CNS) [µM] | GI50 (SR leukemia) [µM] | TGI (SR leukemia) [µM]
O=C(CCC(C(=O)c1ccccc1)c1ccccc1)c1ccccc1 (stereo not drawn) | 7.29 | > 100 | 29.7 | > 100 µM | 4.92 | > 100 | 3.75 | > 100 | 20.7 | > 100 µM | 2.01 | 6.03 | 10.8 | > 100 µM | 5.75 | 76.1 | 27.2 | > 100 | 4.46 | > 100
Nc1c(C(=O)c2ccc(CCCN3CCOCC3)cc2)cnn1-c1ccc(F)cc1 | > 25 | > 25 | > 25 | > 25 µM | > 25 | > 25 | 9.33 | > 25 | > 25 | > 25 µM | > 25 | > 25 | > 25 | > 25 µM | > 15.4 | > 25 | > 25 | > 25 | > 20.4 | > 25
CC[C@@]1(O)C(=O)OCc2c1cc1n(c2=O)Cc2c-1nc1cc3c(cc1c2C)OCO3 | < 0.0001 | 0.0737 | 0.00109 | 0.0837 µM and 0.141 µM | 0.00936 | > 100 | 0.000488 | > 100 | < 0.0001 | 0.0319 µM and 0.0306 µM | 0.0016 | – | < 0.0001 | 0.105 µM and 0.0116 µM | < 0.0001 | 0.23 | 0.00123 | 0.947 | < 0.0001 | 0.000207
c1ccc(CN=C(NCc2ccccc2)NCc2ccccc2)cc1 | 11.2 | 25.3 | 3.65 | 12.9 µM | 14.3 | > 100 | 2.6 | 11.9 | 5.52 | 19.3 µM | 3.21 | 15.1 | 4.66 | 17.8 µM | 4.7 | 24.4 | 2.37 | 13 | 6.21 | 29.5
COc1ccc(-c2c(-c3cc(OC)c(OC)c(OC)c3)noc2N)cc1 | < 0.0124 | > 100 | 0.0197 | 25.1 µM | < 0.0115 | > 100 | < 0.01 | > 100 | < 0.0141 | > 100 µM | < 0.01 | – | 0.0198 | 30 µM | 0.0474 | 5.96 | < 0.01 | 94.2 | < 0.01 | 29.1
COc1ccc2nc3ccccc3c(NCCCN(C)CCCl)c2c1 | – | 2.42 | – | 1.69 µM | – | 8.29 | – | 2.59 | – | 1.16 µM | – | 1.54 | – | 1.2 µM | – | 1.12 | – | 1.47 | – | 0.146
